Experiments:
Type in all cases: in vivo, human
[1] = Single dose cervical application study: systemic exposure (PK) of imiquimod in serum
Description: (§1) This was a single dose, randomized, double-blind, placebo controlled dose escalation study which evaluated five doses of imiquimod. 50, 100, 150, 200 and 250 mg of imiquimod in a cream formulation were applied to the cervix for eight hours. Each dose group was composed of 8 subjects (6 active and 2 placebo), with two subjects treated as dose leaders, and the remaining six subjects were treated after an acceptable response by the dose leaders. Safety was assessed by adverse events (AE's), laboratory tests, and colposcopy with photodocumentation of the cervix at pre-dose and 24 hours post-dose, and 48 hours post-dose if required. Systemic exposure (PK) was determined by measuring imiquimod and metabolites through 48 hours post-dose and the PD response was determined by serum analysis for the cytokines: tumor necrosis factor-α (TNF-α), interferon-α (IFN-α), interleukin-1 receptor […] (IL-1RA), interleukin-6 (IL-6), neopterin (NPT) and 2′5′ oligoadenlyate synthetase (2′5′ AS) during dosing and selected times during the 48 hours post-dose. Statistical tests to evaluate AE's and demographics, laboratory tests, vital signs and ECG's were Fisher's Exact, Wilcoxon Rank-Sum and Kruskall Wallis Tests respectively. Cytokine changes between dose groups were compared using Wilcoxon Rank-Sum and changes from baseline were evaluated using Spearman Rank Correlation.

[2] = test system: serum cytokines (TNF-α, IFN-α, IL-1RA, IL-6, NPT, 2′5′ AS); test: Single dose cervical application study: PD response by serum analysis for cytokines
Description: as §1

[3] = test system: cervix; test: Single dose cervical application study: safety (adverse events, pelvic and colposcopic examination)
Description: as §1

[4] = single doses up to 250 mg applied to the cervix for 8 hours, healthy volunteers
[5] = serum, 150 mg, 200 mg and 250 mg groups

serum levels of imiquimod ([1]; single dose 50-250 mg imiquimod cream (Formulation A) applied to the cervix for 8 hours, through 48 hours post-dose, quantifiable >5 ng/ml): ≤ 5 ng/mL | systemic exposure [1, 4]: minimal systemic exposure
SMILES: CC(C)Cn1cnc2c(N)nc3ccccc3c21 [imiquimod, 1-(2-methylpropyl)-1H-imidazo[4,5-c] quinolin-4-amine]
systemic concentration of certain cytokines ([2]; cervical application of a dose ≧150 mg): increases | 2′5′ AS change from baseline [2, 5]: Significant changes from baseline | IL-1RA change from baseline [2, 5]: Significant changes from baseline | NPT (neopterin) change from baseline [2, 5]: Significant changes from baseline | IFN change from baseline ([2]; serum, 250 mg group): Significant changes from baseline | IL-6 change from baseline ([2]; serum, 250 mg group): Significant changes from baseline | time to resolution of cervical reactions ([3]; 250 mg dose group): ≤ 48 h | subjects experiencing cervical changes of minor small vesicles or smaller ulcer ([3]; 250 mg dose group, pelvic and colposcopic examination): 2 of 6 | overall safety [3, 4]: safe

From patent publication US6706728B2, “Systems and methods for treating a mucosal surface” (3M Innovative Properties Company, priority 1999, dated 2004)
